Source: patent US20180164317A1, “METHOD FOR STRATIFICATION OF MELANOMA PATIENTS BY DETERMINATION OF OXYGEN CONSUMPTION, PPARGC1A, PPARGC1B AND MITF LEVELS” (Bayer Pharma Aktiengesellschaft, priority 2015, published 2018)

Key:
[1] = system: CHL-1; assay: GI50 determination, cell viability (Alamar Blue or Cell Titer Glo); assay type: cell-based; conditions: Homo sapiens; CHL-1 cells; cell viability measured at days 3, 5 and 7; triplicate experiments
Method: (§1) COLO-792, SK-MEL-2, SK-MEL-28, IPC-298 and MEL-HO cells were cultured in RPMI media supplemented with 10% heat-inactivated and filtered FCS (hFCS). CHL-1, Hs852.T, G-361, RPMI-7951 and A-431 cells were cultured in DMEM media supplemented with 10% hFCS. HMCB cells were grown in MEM Earle's media containing 10% hFCS, 1 mM NaPyruvate, non-essential amino acids and 1 mM HEPES. Penicillin (at 50 I.U./mL), streptomycin (at 50 μg/mL), and L-glutamine (at 2 mM) or stable glutamine (supplied with the media) were additional ingredients in all culture media. All cells were grown in an incubator at 37° C. with 5% carbon dioxide.
(§2) Cells were counted and distributed to 96-well plates, with 1000-5000 cells per well. Each plate also contained wells with media alone for background measurements. Appropriate dilutions of BAY 123 or JQ1 were made in media in a titration series. When adherent cells were fully attached, media was removed and replaced with media containing BAY 123, JQ1, or DMSO as a control. Alternatively, appropriate volumes of BAY 123, JQ1 or DMSO were added to media using a dispenser (HP D300, Tecan).
(§3) Cell viability was measured at days 3, 5, and 7, with Alamar Blue (LifeTechnologies) staining and fluorescence detection (excitation 530nm, emission 590nm) in a microplate reader. Alternatively, Cell Titer Glo (Promega) was used, followed by luminescence detection. GI50 values were calculated from triplicate experiments using GraphPad prism software, using curves from plots of fluorescence or luminescence intensity vs. BAY 123 or JQ1 concentration in each cell line. […] Cell lines with a GI50 below 600 nM were defined as sensitive to BET inhibition.

[2] = system: A-431; assay: as above; assay type: cell-based; conditions: Homo sapiens; A-431 cells; cell viability measured at days 3, 5 and 7; triplicate experiments
Method: as §1, §2, §3

[3] = system: COLO-792; assay: as above; assay type: cell-based; conditions: Homo sapiens; COLO-792 cells; cell viability measured at days 3, 5 and 7; triplicate experiments
Method: as §1, §2, §3

[4] = system: SK-MEL-28; assay: as above; assay type: cell-based; conditions: Homo sapiens; SK-MEL-28 cells; cell viability measured at days 3, 5 and 7; triplicate experiments
Method: as §1, §2, §3

[5] = system: IPC-298; assay: as above; assay type: cell-based; conditions: Homo sapiens; IPC-298 cells; cell viability measured at days 3, 5 and 7; triplicate experiments
Method: as §1, §2, §3

[6] = system: HMCB; assay: as above; assay type: cell-based; conditions: Homo sapiens; HMCB cells; cell viability measured at days 3, 5 and 7; triplicate experiments
Method: as §1, §2, §3

[7] = system: SK-MEL-2; assay: as above; assay type: cell-based; conditions: Homo sapiens; SK-MEL-2 cells; cell viability measured at days 3, 5 and 7; triplicate experiments
Method: as §1, §2, §3

[8] = system: RPMI-7951; assay: as above; assay type: cell-based; conditions: Homo sapiens; RPMI-7951 cells; cell viability measured at days 3, 5 and 7; triplicate experiments
Method: as §1, §2, §3

[9] = system: MEL-HO; assay: as above; assay type: cell-based; conditions: Homo sapiens; MEL-HO cells; cell viability measured at days 3, 5 and 7; triplicate experiments
Method: as §1, §2, §3

[10] = system: Hs 852.T; assay: as above; assay type: cell-based; conditions: Homo sapiens; Hs 852.T cells; cell viability measured at days 3, 5 and 7; triplicate experiments
Method: as §1, §2, §3

[11] = system: G-361; assay: as above; assay type: cell-based; conditions: Homo sapiens; G-361 cells; cell viability measured at days 3, 5 and 7; triplicate experiments
Method: as §1, §2, §3

[12] = system: COLO-792; assay: Basal oxygen consumption rate (OCR), XF96 extracellular flux analyzer; assay type: cell-based, human; conditions: COLO-792 cells; FIG. 4
[13] = system: melanoma cell lines (G-361, CHL-1, RPMI-7951, SK-MEL-2); assay: Basal OCR, marker positive versus negative melanoma cell lines, XF96 analyzer; assay type: cell-based, human; conditions: 1 μM, 20 h treatment
Method: (§4) The OCR in G-361, CHL-1, RPMI-7951 and SK-MEL-2 melanoma cells was measured using the XF96 extracellular flux analyzer (Seahorse Bioscience) under standard conditions and after pre-incubation with 1 μM BAY 123 or JQ1 inhibitor for 20 h. Baseline mitochondrial function and mitochondrial stress response were measured by OCR using the XF Mito Stress Test Kit with an XF96 extracellular flux analyzer (Seahorse Bioscience). […] The drug injection ports of the XF96 Assay Cartridge were loaded with assay reagents at a final concentration of 1 μM oligomycin (ATP synthase inhibitor), 0.5 μM FCCP (ionophore and mitochondrial uncoupler which disrupts proton gradient and ATP synthesis), 1 μM Rotenone (mitochondrial complex I inhibitor) and 1 μM Antimycin A (mitochondrial complex III inhibitor).
Briefly, cells treated with 1 μM BAY 123 or JQ1 inhibitor for 20 h were seeded in quadruplicate at equal densities (20,000-30,000 cells/well) into XF96 tissue culture plates (Seahorse Bioscience). […] OCR was measured over time at baseline and following consecutive injections of 1 μM Oligomycin, 0.5 μM FCCP and a mix of 1 μM Rotenone+1 μM Antimycin A. The basal mitochondrial OCR was calculated. […] To this end, the cells were stained using Cyquant (Life technologies) and fluorescence measurements were made using a microplate reader with excitation at 485 nm and emission detection at 530 nm [Tecan].

[14] = system: CHL-1; assay: Basal oxygen consumption rate (OCR), XF96 extracellular flux analyzer; assay type: cell-based, human; conditions: CHL-1 cells; 1 μM, 20 h pre-incubation; FIG. 4
Method: as §4
(§5) Briefly, cells treated with 1 μM BAY 123 or JQ1 inhibitor for 20 h were seeded in quadruplicate at equal densities (20,000-30,000 cells/well) into XF96 tissue culture plates (Seahorse Bioscience). Cell culture medium was changed 12 hours after cell seeding into unbuffered DMEM (8.3 g/l DMEM [Sigma], 2 mM Glutamax [Invitrogen] 5 mM Glucose [Sigma], 1.85 g/l NaCl [Sigma], adjusted to pH 7.4 with NaOH). Real-time measurements of OCR in […] in culture medium were conducted. OCR was measured over time at baseline and following consecutive injections of 1 μM Oligomycin, 0.5 μM FCCP and a mix of 1 μM Rotenone+1 μM Antimycin A. The basal mitochondrial OCR was calculated. The OCR values were normalized to cell numbers plated. To this end, the cells were stained using Cyquant (Life technologies) and fluorescence measurements were made using a microplate reader with excitation at 485 nm and emission detection at 530 nm [Tecan].

[15] = system: SK-MEL-2; assay: as above; assay type: cell-based, human; conditions: SK-MEL-2 cells; 1 μM, 20 h pre-incubation; FIG. 4
Method: as §4, §5

[16] = system: G-361; assay: as above; assay type: cell-based, human; conditions: G-361 cells; 1 μM, 20 h pre-incubation; FIG. 4
Method: as §4, §5

With Cc1sc2c(c1C)C(c1ccc(Cl)cc1)=NC(CC(=O)OC(C)(C)C)c1nnc(C)n1-2 (racemic) [JQ1, [(R,S)-4-(4-Chlorophenyl)-2,3,9-trimethyl-6H-1-thia-5,7,8,9a-tetraaza-cyclopenta[e]azulen-6-yl]-acetic acid tert-butyl ester] the GI50 [1] was 60 nM, the GI50 [2] was 720 nM and the GI50 [3] was 50 nM. It also gave a GI50 [4] of 1760 nM, a GI50 [5] of 60 nM and a GI50 [6] of 330 nM. The GI50 [7] was > 20000 nM, the GI50 [8] was 1460 nM and the GI50 [9] was 190 nM. The GI50 [10] was 7570 nM, the GI50 [11] was 240 nM and the “basal OCR with versus without treatment” value [12] was “Reduction of basal OCR”. The “decrease of basal OCR in PPARGC1A, PPARGC1B, MITF positive melanoma (G-361, CHL-1) compared to negative melanoma cell lines (RPMI-7951, SK-MEL-2)” value [13] was “decreased more dramatically”, the “basal OCR with versus without treatment” value [14] was “Reduction of basal OCR” and the “basal OCR with versus without treatment” value [15] was “Reduction of basal OCR”. For the same molecule, the “basal OCR with versus without treatment” value [16] was “Reduction of basal OCR”.

CNC(=O)N1N=C(c2ccc(N3CCN(C)CC3)cc2)c2cc(OC)c(OC)cc2C[C@@H]1C [BAY 123, (4S)-7,8-dimethoxy-N,4-dimethyl-1-[4-(4-methylpiperazin-1-yl)phenyl]-4,5-dihydro-3H-2,3-benzodiazepine-3-carboxamide] was tested, and the GI50 [1] was 70 nM, the GI50 [2] was 930 nM and the GI50 [3] was 80 nM. The GI50 [4] was 1260 nM, the GI50 [5] was 150 nM and the GI50 [6] was 570 nM. The GI50 [7] was > 20000 nM, the GI50 [8] was 2180 nM and the GI50 [9] was 470 nM. For the same molecule, the GI50 [10] was 4440 nM, the GI50 [11] was 250 nM and the “basal OCR with versus without treatment” value [12] was “Reduction of basal OCR”. The “decrease of basal OCR in PPARGC1A, PPARGC1B, MITF positive melanoma (G-361, CHL-1) compared to negative melanoma cell lines (RPMI-7951, SK-MEL-2)” value [13] was “decreased more dramatically”, the “basal OCR with versus without treatment” value [14] was “Reduction of basal OCR” and the “basal OCR with versus without treatment” value [15] was “Reduction of basal OCR”. The “basal OCR with versus without treatment” value [16] was “Reduction of basal OCR”.
